Experimental data published in patent US6414170B1, “Preparation of cationic surfactants containing ester group in molecules” (LG Chemical Ltd., priority 1998, dated 2002).

Experiment: OECD 301D Closed Bottle Test (evaluation of ultimate biodegradability)
Details: 60% or more biodegraded two weeks from start of decomposition, test period of 28 days
Text: Measuring of the ultimate biodegradability was made by taking an OECD 301D Closed Bottle Test (a test for determining whether or not 60% or more can be biodegraded two weeks from the time when the sample begins decomposing during the test period of 28 days) on cationic surfactants prepared in EXAMPLES 1 to 8, dimethyl dialkyl ammonium chloride, and imidazoline ester. The ultimate biodegradabilities of cationic surfactants of EXAMPLE 1, 2, 8, and conventional cationic surfactants were less than 60%, thereby not being readily biodegradable.

For dimethyl dialkyl ammonium chloride, the Readily biodegradable was “No”.
